Measured values taken from PubChem BioAssay (NCI).
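GI50 is the concentration that inhibits growth by half. TGI denotes the concentration required for complete inhibition of growth.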

Experiments:
Test in all cases: growth of human tumour cells (NCI), 384-well format
786-0 renal = system: 786-0 renal
A498 renal = system: A498 renal
A549 NSCLC = system: A549 NSCLC
ACHN renal = system: ACHN renal
BT-549 breast = system: BT-549 breast
CAKI-1 renal = system: CAKI-1 renal
CCRF-CEM leukemia = system: CCRF-CEM leukemia
COLO 205 colon = system: COLO 205 colon
DU-145 prostate = system: DU-145 prostate
EKVX NSCLC = system: EKVX NSCLC
HCC-2998 colon = system: HCC-2998 colon
HCT-116 colon = system: HCT-116 colon
HCT-15 colon = system: HCT-15 colon
HL-60(TB) leukemia = system: HL-60(TB) leukemia
HOP-62 NSCLC = system: HOP-62 NSCLC
HOP-92 NSCLC = system: HOP-92 NSCLC
HS 578T breast = system: HS 578T breast
HT29 colon = system: HT29 colon
IGROV1 ovarian = system: IGROV1 ovarian
KM12 colon = system: KM12 colon
LOX IMVI melanoma = system: LOX IMVI melanoma
M14 melanoma = system: M14 melanoma
MALME-3M melanoma = system: MALME-3M melanoma
MCF7 breast = system: MCF7 breast
MDA-MB-231 breast = system: MDA-MB-231 breast
MDA-MB-435 melanoma = system: MDA-MB-435 melanoma
MDA-MB-468 breast = system: MDA-MB-468 breast
MOLT-4 leukemia = system: MOLT-4 leukemia
NCI-H226 lung = system: NCI-H226 lung

CNC(=O)c1c(C)oc2cc(Oc3ncnc4cc(OC)c(OC)cc34)ccc12
GI50 (786-0 renal): > 100 µM | TGI (786-0 renal): > 100 µM | GI50 (A498 renal): > 100 µM | TGI (A498 renal): > 100 µM | GI50 (A549 NSCLC): > 100 µM | TGI (A549 NSCLC): > 100 µM | GI50 (ACHN renal): > 100 µM | TGI (ACHN renal): > 100 µM | GI50 (BT-549 breast): 11.5 µM | TGI (BT-549 breast): > 100 µM | GI50 (CAKI-1 renal): > 100 µM | TGI (CAKI-1 renal): > 100 µM | GI50 (CCRF-CEM leukemia): > 100 µM | TGI (CCRF-CEM leukemia): > 100 µM | GI50 (COLO 205 colon): > 100 µM | TGI (COLO 205 colon): > 100 µM | GI50 (DU-145 prostate): > 100 µM | TGI (DU-145 prostate): > 100 µM | GI50 (EKVX NSCLC): > 100 µM | TGI (EKVX NSCLC): > 100 µM | GI50 (HCC-2998 colon): > 100 µM | TGI (HCC-2998 colon): > 100 µM | GI50 (HCT-116 colon): > 100 µM | TGI (HCT-116 colon): > 100 µM | GI50 (HCT-15 colon): > 100 µM | TGI (HCT-15 colon): > 100 µM | GI50 (HL-60(TB) leukemia): > 100 µM | TGI (HL-60(TB) leukemia): > 100 µM | GI50 (HOP-62 NSCLC): > 100 µM | TGI (HOP-62 NSCLC): > 100 µM | GI50 (HOP-92 NSCLC): > 87.5 µM | TGI (HOP-92 NSCLC): > 100 µM | GI50 (HS 578T breast): 25.5 µM | TGI (HS 578T breast): > 100 µM | GI50 (HT29 colon): > 100 µM | TGI (HT29 colon): > 100 µM | GI50 (IGROV1 ovarian): > 100 µM | TGI (IGROV1 ovarian): > 100 µM | GI50 (KM12 colon): > 100 µM | TGI (KM12 colon): > 100 µM | GI50 (LOX IMVI melanoma): > 100 µM | TGI (LOX IMVI melanoma): > 100 µM | GI50 (M14 melanoma): > 100 µM | TGI (M14 melanoma): > 100 µM | GI50 (MALME-3M melanoma): > 100 µM | TGI (MALME-3M melanoma): > 100 µM | GI50 (MCF7 breast): > 100 µM | TGI (MCF7 breast): > 100 µM | GI50 (MDA-MB-231 breast): > 100 µM | TGI (MDA-MB-231 breast): > 100 µM | GI50 (MDA-MB-435 melanoma): > 100 µM | TGI (MDA-MB-435 melanoma): > 100 µM | GI50 (MDA-MB-468 breast): > 100 µM | TGI (MDA-MB-468 breast): > 100 µM | GI50 (MOLT-4 leukemia): > 87.1 µM | TGI (MOLT-4 leukemia): > 100 µM | TGI (NCI-H226 lung): > 100 µM
